Data taken from patent publication US20060264494A1, “Heterocyclic amide derivatives which process glycogen phorylase inhibitory activity” (AstraZeneca AB, priority 2003, published 2006).
Converted amounts (≈) assume the structure as drawn. Like-named read-outs stand apart in the source and are kept apart here. Values belong to the compound of their own block, whether it stands above or below them.

Tests used:
hepatocytes = settings: cited from earlier work
[1] = db/db and ob/ob mice; dose related; cited from earlier work
[2] = target: T1, Human recombinant liver glycogen phosphorylase a (hrl GPa) (Homo sapiens, UniProt P06737); experiment: glycogen phosphorylase inhibition, multienzyme coupled assay; assay type: biochemical
T1 sequence (P06737 1-847): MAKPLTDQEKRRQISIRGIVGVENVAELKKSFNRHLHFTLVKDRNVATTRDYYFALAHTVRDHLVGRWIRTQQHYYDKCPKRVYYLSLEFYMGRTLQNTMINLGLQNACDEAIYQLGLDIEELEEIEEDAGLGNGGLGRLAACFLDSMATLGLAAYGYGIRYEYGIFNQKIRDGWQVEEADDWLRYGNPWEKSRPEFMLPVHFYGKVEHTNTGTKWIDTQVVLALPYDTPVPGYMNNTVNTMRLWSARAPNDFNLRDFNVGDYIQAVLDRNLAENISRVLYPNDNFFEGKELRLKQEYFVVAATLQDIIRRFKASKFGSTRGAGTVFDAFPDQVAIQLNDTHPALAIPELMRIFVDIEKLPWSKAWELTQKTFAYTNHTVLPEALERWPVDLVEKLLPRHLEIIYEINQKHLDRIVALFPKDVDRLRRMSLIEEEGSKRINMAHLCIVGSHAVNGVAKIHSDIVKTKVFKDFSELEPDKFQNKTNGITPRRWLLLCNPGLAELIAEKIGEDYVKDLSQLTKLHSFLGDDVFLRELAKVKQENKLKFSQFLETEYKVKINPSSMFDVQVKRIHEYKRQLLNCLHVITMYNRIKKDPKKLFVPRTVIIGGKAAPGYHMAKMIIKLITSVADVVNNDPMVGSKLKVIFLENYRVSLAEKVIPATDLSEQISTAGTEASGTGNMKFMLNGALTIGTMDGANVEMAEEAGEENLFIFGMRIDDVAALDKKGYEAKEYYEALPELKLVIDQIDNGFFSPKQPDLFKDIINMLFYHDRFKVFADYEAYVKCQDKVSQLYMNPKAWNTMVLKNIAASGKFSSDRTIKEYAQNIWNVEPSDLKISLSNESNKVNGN
Procedure: The activity of the compounds is determined by measuring the inhibitory effect of the compounds on glycogen degradation, the production of glucose-1-phosphate from glycogen is monitored by the multienzyme coupled assay, as described in EP 0 846 464 A2, general method of Pesce et al (Pesce, M A, Bodourian, S H, Harris, R C, and Nicholson, J F (1977) Clinical Chemistry 23, […]). The reactions were in 384 well microplate format in a volume of 50 μl. The change in fluorescence due to the conversion of the co-factor NAD to NADH is measured at 340 nm excitation, 465 nm emission in a Tecan Ultra Multifunctional Microplate Reader. The reaction is in 50 mM HEPES, 3.5 mM KH2PO4, 2.5 mM MgCl2, 2.5 mM ethylene glycol-bis(b-aminoethyl ether) N,N,N′,N′-tetraacetic acid, 100 mM KCl, 8 mM D-(+)-glucose pH7.2, containing 0.5 mM dithiothreitol, the assay buffer solution. Human recombinant liver glycogen phosphorylase a (hrl GPa) 20 nM is pre-incubated in assay buffer solution with 6.25 mM NAD, 1.25 mg type III glycogen at 1.25 mg ml^−1 the reagent buffer, for 30 minutes. The coupling enzymes, phosphoglucomutase and glucose-6-phosphate dehydrogenase (Sigma) are prepared in reagent buffer, final concentration 0.25 Units per well. 20 μl of the hrl GPa solution is added to 10 μl compound solution and the reaction started with the addition of 20 μl coupling enzyme solution. Compounds to be tested are prepared in 10 μl 5% DMSO in assay buffer solution, with final concentration of 1% DMSO in the assay. The non-inhibited activity of GPa is measured in the presence of 10 μl 5% DMSO in assay buffer solution and maximum inhibition measured in the presence of 5 mgs ml^−1 N-ethylmaleimide. After 6 hours at 30° C. Relative Fluoresence Units (RFUs) are measured at 340 nm excitation, 465 nm emission.
The assay is performed at a test concentration of inhibitor of 10 μM or 100 μM.

thermodynamic solubility = assay type: physicochemical; settings: 0.1 M phosphate buffer, pH 7.4, aqueous buffer, thermodynamic from solid, 0.1 M phosphate at pH7.4 for 24 hours
[3] = conscious dogs, following a glucagon challenge; cited from earlier work
[4] = hrl GPa 20 nM, 6 hours at 30° C., read-out: Activity (μM) IC50

Compound: CN(C)C(=O)[C@H](O)[C@H](Cc1ccccc1)NC(=O)c1cc2cc(Cl)ccc2[nH]1 [CP91149]
glucagon stimulated glycogenolysis (hepatocytes): reduce | glucose output in hepatocytes (hepatocytes): reduce | plasma glucose concentration [1]: reduced

IC50 [2, 4]: 0.11 µM | solubility at 24 h (thermodynamic solubility): 50 µM
Compound: CN(C(=O)[C@@H](N)CO)[C@@H]1c2ccccc2C[C@H]1NC(=O)c1cc2sc(Cl)c(Cl)c2[nH]1.Cl [Example 27, 2,3-Dichloro-N-{(1R,2R)-1-[methyl(L-seryl)amino]-2,3-dihydro-1H-inden-2-y}-4H-thieno[3,2-b]pyrrole-5-carboxamide hydrochloride]

Compound: 2-Chloro-N-{(1R,2R)-1-[[(2S)-2,3-dihydroxypropanoyl](methyl)amino]-2,3-dihydro-1H-inden-2-yl}-6H-thieno[2,3-b]pyrrole-5-carboxamide [Example 8]
IC50 [2, 4]: 0.07 µM | IC50 ([2]; text b160, unit printed as nm, read-out: IC50): 0.176 µM

IC50 [2, 4]: ~0.4 µM | solubility at 24 h (thermodynamic solubility): 1.4 µM (≈ 0.591 µg/mL)
Compound: CC(=O)N(C)[C@@H]1c2ccccc2C[C@H]1NC(=O)c1cc2sc(Cl)c(Cl)c2[nH]1 [Reference Eg 1]

Compound: O=C(N[C@@H](Cc1ccc(F)cc1)C(=O)N1CCC(O)CC1)c1cc2cc(Cl)ccc2[nH]1 [CP320626]
glucagon stimulated glycogenolysis (hepatocytes): reduce | glucose output in hepatocytes (hepatocytes): reduce | plasma glucose concentration [1]: reduced

IC50 ([2]; text b160, read-out: IC50): 0.265 µM
Compound: COCC(=O)N(C)[C@@H]1c2ccccc2C[C@H]1NC(=O)c1cc2cc(Cl)sc2[nH]1 [Example 1, 2-Chloro-N-{(1R,2R)-1-[(methoxyacetyl)(methyl)amino]-2,3-dihydro-1H-inden-2-yl}-6H-thieno[2,3-b]pyrrole-5-carboxamide]

Compound: CCN1C(C)=C(C(=O)OC(C)C)C(c2ccccc2Cl)C2=C1COC2=O (stereo not drawn) [Bay R 3401]
arterial plasma glucose [3]: reduced significantly | hepatic glucose output [3]: reduced significantly
